Consider one molecule from patent publication US9221807B2, “Substituted pyridones and pyrazinones and their use as inhibitors of neutrophil elastase activity” (Boehringer Ingelheim International GmbH, priority 2014, dated 2015).

For this experiment, the target named is T1, Human neutrophil elastase (Homo sapiens, UniProt P08246).
T1 construct: purchased Calbiochem 324681
T1 sequence (P08246 30-267): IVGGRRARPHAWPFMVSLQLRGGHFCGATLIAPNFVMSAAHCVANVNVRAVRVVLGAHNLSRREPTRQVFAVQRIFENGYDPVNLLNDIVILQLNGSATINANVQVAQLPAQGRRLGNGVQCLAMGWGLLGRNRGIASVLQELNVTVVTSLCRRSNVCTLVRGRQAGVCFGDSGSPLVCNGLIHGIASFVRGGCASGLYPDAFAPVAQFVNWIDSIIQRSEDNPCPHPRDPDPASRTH
In words: Human Neutrophil Elastase Assay. The format is biochemical. Particulars: substrate MeOSuc-Ala-Ala-Pro-Val-AMC 250 μM, pH 7.5, fluorescence. As for the experimental part:
Human Neutrophil Elastase Assay
Materials: Human neutrophil elastase was purchased from Calbiochem (Cat. No.: 324681) and the elastase substrate MeOSuc-Ala-Ala-Pro-Val-AMC from Bachem (Cat. No.: 1-1270). All other materials were of the highest grade commercially available. The following buffers were used: Compound buffer: 100 mM Tris, 500 mM NaCl, adjusted to pH 7.5; Assay buffer: 100 mM Tris, 500 mM NaCl, adjusted to pH 7.5, containing 0.01% BSA. Assay conditions: Test compounds were prediluted in DMSO and subsequently in compound buffer (5% DMSO final). 5 μL of these compound dilutions were mixed with 10 μl Neutrophil elastase (9 ng/ml in assay buffer) in a black 384 well OptiPlate (Perkin Elmer, Cat No.: 6007270) and incubated for 15 min at room temperature. Subsequently 10 μL substrate solution in assay buffer were added (250 μM final concentration) and the plates were incubated for 60 min at room temperature. After inactivation of the enzyme, fluorescence intensities were measured at 380 nm excitation and 460 nm emission wavelengths. Each plate contains wells with a high value control (DMSO+enzyme+substrate) and wells with a low value control (DMSO+inactivated enzyme+substrate). IC50 values were estimated using a sigmoidal concentration response curve with variable slope. Means of low values were taken as 0%, means of high values as 100%.

By IC50 is commonly meant the concentration that inhibits the measured activity by half. Low readings indicate greater potency, high ones weaker potency. `Cc1c(-c2ccnn2C)cc(C(=O)NCc2ccc(S(C)(=O)=N[N+](=O)[O-])cc2)c(=O)n1-c1cccc(C(F)(F)F)c1` (stereo not shown) [Example 12, 6-Methyl-N-[[4-(S-methyl-N-nitro-sulfonimidoyl)phenyl]methyl]-5-(2-methylpyrazol-3-yl)-2-oxo-1-[3-(trifluoromethyl)phenyl]pyridine-3-carboxamide] registered an IC50 of 5 nM.
